pEC50: −log10 of the molar value.
Target: T1, mAChR M4 (Homo sapiens, UniProt P08173)
T1 construct: expressed in transfected cells; host or cells: CHO-K1 cells stably transfected with M4 cDNA and chimeric G-protein Gqi5
T1 sequence (P08173 1-479): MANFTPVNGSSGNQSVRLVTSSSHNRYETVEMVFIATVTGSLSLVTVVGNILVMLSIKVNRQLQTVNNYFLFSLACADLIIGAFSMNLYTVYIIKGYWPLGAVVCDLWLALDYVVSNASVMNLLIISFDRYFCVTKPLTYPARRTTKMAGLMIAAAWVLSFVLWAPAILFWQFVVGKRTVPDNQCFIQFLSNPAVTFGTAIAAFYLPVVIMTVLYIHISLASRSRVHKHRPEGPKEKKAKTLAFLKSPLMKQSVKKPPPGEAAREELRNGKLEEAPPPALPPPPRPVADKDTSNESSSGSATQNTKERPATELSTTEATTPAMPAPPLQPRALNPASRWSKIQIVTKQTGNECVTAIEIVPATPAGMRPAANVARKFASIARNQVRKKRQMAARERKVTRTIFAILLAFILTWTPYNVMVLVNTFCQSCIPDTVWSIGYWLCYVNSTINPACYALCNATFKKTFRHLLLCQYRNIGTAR
Assay: mAChR M4 cell-based functional assay (calcium mobilization, potentiation of EC20 acetylcholine response)
Details: for Emax at 30 µM: % ACh maximum at 30 μM; for pEC50: mAChR M4 cell-based functional assay, >10,000 estimated for low potency compounds without plateau, read-out: EC50

| Compound | Emax at 30 µM | pEC50 |
| --- | --- | --- |
| Cc1nnc2sc(C(=O)N3CC(F)(c4ccccc4)C3)c(N)c2c1C [Example B173] | 56% | 6.77 |
| Cc1nnc2sc(C(=O)NCc3ccc(CS(C)(=O)=O)cc3)c(N)c2c1C [Example B74] | 69% | 6.77 |
| Cc1nnc2sc(C(=O)NCc3ccc(C(F)(F)F)nc3)c(N)c2c1C [Example B443] | 69% | 6.92 |
| Cc1nnc2sc(C(=O)NC3CCN(c4ccc(F)cc4)C3)c(N)c2c1C (stereo not drawn) [Example B346] | 79% | 6.77 |
| Nc1c(C(=O)NCc2ccc3c(c2)OCO3)sc2nnc3c(c12)CCCC3 [Example B50] | 49% | 7.21 |
| Cc1nnc2sc(C(=O)N3CC4CN(C(=O)CC5CCCCC5)CC4C3)c(N)c2c1C (stereo not drawn) [Example B386] | 44% | 6.09 |
| Cc1ccc(S(=O)(=O)NC2CCN(C(=O)c3sc4nnc(C)c(C)c4c3N)C2)s1 (stereo not drawn) [Example B257] | 62% | 5.96 |
| Cc1nnc2sc(C(=O)NC3CCN(C(=O)OCc4ccccc4)C3)c(N)c2c1C (stereo not drawn) [Example B206] | 64% | 7.51 |
| COc1ccc(C#CCNC(=O)c2sc3nnc(C)c(C)c3c2N)cc1 [Example B373] | 66% | 6.77 |
| Cc1nnc2sc(C(=O)N3CC(NC(=O)Oc4ccccc4)(c4ccccc4)C3)c(N)c2c1C [Example B309] | 48% | < 5.00 |
| Cc1cc(NC(=O)c2sc3nnc(C)c(C)c3c2N)ccn1 [Example B88] | 43% | 6.40 |
| Cc1nnc2sc(C(=O)N[C@H]3C[C@@H]3c3ccc(S(C)(=O)=O)cc3)c(N)c2c1C (single isomer, unassigned) [Example B110] | 62% | 7.74 |
| Cc1nnc2sc(C(=O)NCc3ccc(-c4cc(C)c5[nH]ncc5c4)cc3)c(N)c2c1C [Example B474] | 82% | 6.34 |
| Cc1nnc2sc(C(=O)NCCN(C)S(=O)(=O)c3ccccc3)c(N)c2c1C [Example B375] | 51% | 5.40 |
| Cc1nnc2sc(C(=O)NCCNC(=O)C3CC3)c(N)c2c1C [Example B367] | 52% | < 5.00 |
| Cc1nnc2sc(C(=O)NC3CCN(c4ccncc4)C3)c(N)c2c1C (stereo not drawn) [Example B266] | 70% | 6.66 |

| Compound | Emax at 30 µM | pEC50 |
| --- | --- | --- |
| Cc1nnc2sc(C(=O)NCc3ccnc(F)c3)c(N)c2c1C [Example B452] | 59% | 6.62 |
| Cc1nnc2sc(C(=O)NCc3ccc4c(c3)CN(C(C)C)C4=O)c(N)c2c1C [Example B407] | 61% | 6.66 |
| Cc1nnc2sc(C(=O)N3CCC(NC(=O)C4CC4c4ccccc4)C3)c(N)c2c1C (stereo not drawn) [Example B254] | 65% | 5.85 |
| Cc1nnc2sc(C(=O)NCc3ccc(-c4cccs4)cc3)c(N)c2c1C [Example B460] | 76% | 7.55 |
| Cc1nnc2sc(C(=O)N3CC(NC(=O)c4ccccc4)C3)c(N)c2c1C [Example B169] | 68% | 5.82 |
| Cc1nnc2sc(C(=O)NCCNC(=O)c3ccncc3)c(N)c2c1C [Example B364] | 49% | 5.41 |
| COc1ccc(CNC(=O)c2sc3nnc(C)c(C)c3c2N)cc1F [Example B90] | 58% | – |
| Cc1nnc2sc(C(=O)NCc3ccc(-c4cncc(F)c4)cc3)c(N)c2c1C [Example B487] | 71% | 7.43 |
| Cc1nnc2sc(C(=O)NC3CCN(C(=O)c4ccc(F)c(F)c4)C3)c(N)c2c1C (stereo not drawn) [Example B255] | 71% | 6.37 |
| Cc1nnc2sc(C(=O)N3CC(F)(c4ccncc4)C3)c(N)c2c1C [Example B312] | 55% | 5.55 |
| Cc1nnc2sc(C(=O)NC3CCN(C(=O)CCCc4ccccc4)C3)c(N)c2c1C (stereo not drawn) [Example B258] | 64% | 6.28 |
| Cc1nnc2sc(C(=O)N3CC(Sc4ccc(F)c(F)c4)C3)c(N)c2c1C [Example B414] | 63% | 6.47 |
| COc1ccc(CNC2CN(C(=O)c3sc4nnc(C)c(C)c4c3N)C2)cc1 [Example B61] | 55% | 5.34 |
| Cc1nnc2sc(C(=O)N3CC(F)(c4ccc(S(=O)(=O)C(F)(F)F)cc4)C3)c(N)c2c1C [Example B378] | 46% | 5.38 |
| Cc1nnc2sc(C(=O)NCc3ccc(OC(F)F)cc3)c(N)c2c1C [Example B168] | 76% | 7.89 |
| COc1ccc(CNC(=O)c2sc3nnc(C)c(C)c3c2N)nc1 [Example B508] | 54% | 6.11 |
